From patent publication US20230407243A1, “GENETIC PLATFORM TO INVESTIGATE THE FUNCTIONS OF BACTERIAL DRUG EFFLUX PUMPS” (priority 2022, published 2023)

Tests used:
Assay type in all cases: cell-based, Escherichia coli
[1] = test system: wild-type E. coli K-12 str. BW25113; assay: microbe, parasite or virus in culture; details: technical duplicate; for Minimum inhibitory concentration (MIC), K-12: Table 10, without pore; for Minimum Inhibitory Concentration, K-12: Table 13A, non-porinated
Procedure, shortened: (§1)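 Overnight LB cultures resuspended in PBS to OD600 ~1.0, diluted 1/2000 into MHB II, and added to 2-fold serial compound dilutions in duplicate with DMSO controls. Incubated 18 h at 37° C. with 900 rpm shaking; OD600 read before and after, background subtracted, to derive MIC.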

E. coli ΔtolC = assay: microbe, parasite or virus in culture; details: technical duplicate; for Minimum inhibitory concentration (MIC), ΔtolC: Table 10, without pore; for Minimum Inhibitory Concentration, ΔtolC: Table 13A, non-porinated
Procedure, shortened: as §1

E. coli EKO-35 = assay: microbe, parasite or virus in culture; details: for Fold change of MICs: EKO-35 compared to EKO-35 (reference); for Minimum inhibitory concentration (MIC), EKO-35: Table 10, without pore; for Minimum inhibitory concentration (MIC), EKO-35 / Minimum Inhibitory Concentration, EKO-35: technical duplicate; for Minimum Inhibitory Concentration, EKO-35: Table 13A, non-porinated
Procedure, shortened: as §1

EKO-35-Pore = assay: MIC susceptibility profiling, porinated strain; details: for Fold changes of MICs: EKO-35-Pore compared to EKO-35-Pore (reference); for Minimum inhibitory concentration (MIC), Pore EKO-35: Table 10, with pore; for Minimum inhibitory concentration (MIC), Pore EKO-35 / Minimum inhibitory concentration, EKO-35-Pore: technical duplicate; for Minimum inhibitory concentration, EKO-35-Pore: Table 14A, porinated
Procedure, shortened: (§2)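 MIC values come from background-corrected OD600 readings (pre-incubation OD subtracted) after 18 h at 37 °C and 900 rpm in MHB II. Compounds were tested in duplicate as 2-fold dilutions. The inoculum came from 18 h LB cultures adjusted to OD600 ~1.0 and diluted 1/2000, and the pore-bearing strains were vancomycin-checked beforehand.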

EKO-35 araC::mexCD Pore = assay: MIC susceptibility profiling, porinated efflux platform; details: for Fold changes of MICs: EKO-35 araC::mexCD Pore compared to EKO-35-Pore; for Minimum inhibitory concentration: EKO-35 araC::mexCD Pore, technical duplicate
Procedure, shortened: as §2

EKO-35 araC::emrKY Pore = assay: as above; details: for Fold changes of MICs: EKO-35 araC::emrKY Pore compared to EKO-35-Pore; for Minimum inhibitory concentration: EKO-35 araC::emrKY Pore, technical duplicate
Procedure, shortened: as §2

EKO-35 araC::acrEF Pore = assay: as above; details: for Minimum inhibitory concentration, EKO-35 araC::acrEF Pore: Table 14A, porinated, technical duplicate
Procedure, shortened: as §2

EKO-35 araC::mdtBC Pore = assay: as above; details: for Fold changes of MICs: EKO-35 araC::mdtBC Pore compared to EKO-35-Pore; for Minimum inhibitory concentration: EKO-35 araC::mdtBC Pore, technical duplicate
Procedure, shortened: as §2

[2] = test system: EKO-35 araC::acrBD408A Pore; assay: as above; details: for Fold changes of MICs: EKO-35 araC::acrBD408A Pore compared to EKO-35-Pore; for Minimum inhibitory concentration: EKO-35 araC::acrBD408A Pore, technical duplicate
Procedure, shortened: as §2

EKO-35 araC::emrAB Pore = assay: as above; details: for Fold changes of MICs: EKO-35 araC::emrAB Pore compared to EKO-35-Pore; for Minimum inhibitory concentration: EKO-35 araC::emrAB Pore, technical duplicate
Procedure, shortened: as §2

EKO-35 araC::mdtEF Pore = assay: as above; details: for Fold changes of MICs: EKO-35 araC::mdtEF Pore compared to EKO-35-Pore; for Minimum inhibitory concentration, EKO-35 araC::mdtEF Pore: Table 14A, porinated, technical duplicate
Procedure, shortened: as §2

EKO-35 araC::acrB Pore = assay: as above; details: for Fold changes of MICs: EKO-35 araC::acr-B Pore compared to EKO-35-Pore; for Minimum inhibitory concentration, EKO-35 araC::acrB Pore: Table 14A, porinated, technical duplicate
Procedure, shortened: as §2

EKO-35 araC::macAB Pore = assay: as above; details: for Fold changes of MICs: EKO-35 araC::macAB Pore compared to EKO-35-Pore; for Minimum inhibitory concentration: EKO-35 araC::macAB Pore, technical duplicate
Procedure, shortened: as §2

EKO-35 araC::acrD Pore = assay: as above; details: for Fold changes of MICs: EKO-35 araC::acrD Pore compared to EKO-35-Pore; for Minimum inhibitory concentration, EKO-35 araC::acrD Pore: Table 14A, porinated, technical duplicate
Procedure, shortened: as §2

wild-type (WT) K-12-Pore = assay: microbe, parasite or virus in culture; details: technical duplicate; for Minimum inhibitory concentration (MIC), Pore K-12: Table 10, with pore; for Minimum inhibitory concentration, K-12 (WT)-Pore: Table 14A, porinated
Procedure, shortened: as §2

ΔtolC-Pore = assay: microbe, parasite or virus in culture; details: technical duplicate; for Minimum inhibitory concentration (MIC), Pore ΔtolC: Table 10, with pore; for Minimum inhibitory concentration, ΔtolC-Pore: Table 14A, porinated
Procedure, shortened: as §2

EKO-35 araC::acrEF = assay: MIC susceptibility profiling, efflux platform; details: for Fold change of MICs: EKO-35 araC::acrEF compared to EKO-35; for Minimum Inhibitory Concentration, EKO-35 araC::acrEF: Table 13A, non-porinated, technical duplicate
Procedure, shortened: as §1

EKO-35 araC::macAB = assay: MIC susceptibility profiling, efflux platform; details: for Fold change of MICs: EKO-35 araC::macAB compared to EKO-35; for Minimum Inhibitory Concentration, EKO-35 araC::macAB: Table 13B, non-porinated, technical duplicate
Procedure, shortened: as §1

EKO-35 araC::emrAB = assay: MIC susceptibility profiling, efflux platform; details: for Fold change of MICs: EKO-35 araC::emrAB compared to EKO-35; for Minimum Inhibitory Concentration, EKO-35 araC::emrAB: Table 13B, non-porinated, technical duplicate
Procedure, shortened: as §1

## benzalkonium chloride
[1]
  Minimum inhibitory concentration (MIC), K-12: 12.5 µg/mL
  Minimum Inhibitory Concentration, K-12: 12.5 µg/mL
E. coli ΔtolC
  Minimum inhibitory concentration (MIC), ΔtolC: 0.391 µg/mL
  Minimum Inhibitory Concentration, ΔtolC: 0.391 µg/mL
E. coli EKO-35
  Fold change of MICs: 1 fold
  Minimum inhibitory concentration (MIC), EKO-35: 0.391 µg/mL
  Minimum Inhibitory Concentration, EKO-35: 0.391 µg/mL
EKO-35-Pore
  Fold changes of MICs: 1 fold
  Minimum inhibitory concentration (MIC), Pore EKO-35: 0.391 µg/mL
  Minimum inhibitory concentration, EKO-35-Pore: 0.391 µg/mL
EKO-35 araC::mexCD Pore
  Fold changes of MICs: 1 fold
  Minimum inhibitory concentration: 0.391 µg/mL
EKO-35 araC::emrKY Pore
  Fold changes of MICs: 1 fold
  Minimum inhibitory concentration: 0.195 µg/mL
EKO-35 araC::acrEF Pore; AcrEF with the pore
  efflux pump-mediated resistance vs EKO-35-Pore: impacted the ability of AcrEF to confer resistance
EKO-35 araC::acrEF Pore; EKO-35 araC::acrEF Pore compared to EKO-35-Pore
  Fold changes of MICs: 2 fold
EKO-35 araC::acrEF Pore
  Minimum inhibitory concentration, EKO-35 araC::acrEF Pore: 0.781 µg/mL
EKO-35 araC::mdtBC Pore
  Fold changes of MICs: 1 fold
  Minimum inhibitory concentration: 0.195 µg/mL
[2]
  Fold changes of MICs: 1 fold
  Minimum inhibitory concentration: 0.391 µg/mL
EKO-35 araC::emrAB Pore
  Fold changes of MICs: 1 fold
  Minimum inhibitory concentration: 0.391 µg/mL
EKO-35 araC::mdtEF Pore
  Fold changes of MICs: 4 fold
  Minimum inhibitory concentration, EKO-35 araC::mdtEF Pore: 1.563 µg/mL
EKO-35 araC::acrB Pore
  Fold changes of MICs: 8 fold
  Minimum inhibitory concentration, EKO-35 araC::acrB Pore: 3.125 µg/mL
EKO-35 araC::macAB Pore
  Fold changes of MICs: 1 fold
  Minimum inhibitory concentration: 0.391 µg/mL
EKO-35 araC::acrD Pore
  Fold changes of MICs: 1 fold
  Minimum inhibitory concentration, EKO-35 araC::acrD Pore: 0.391 µg/mL
wild-type (WT) K-12-Pore
  Minimum inhibitory concentration (MIC), Pore K-12: 6.25 µg/mL
  Minimum inhibitory concentration, K-12 (WT)-Pore: 6.25 µg/mL
ΔtolC-Pore
  Minimum inhibitory concentration (MIC), Pore ΔtolC: 0.391 µg/mL
  Minimum inhibitory concentration, ΔtolC-Pore: 0.391 µg/mL
EKO-35 araC::acrEF
  Fold change of MICs: 4 fold
  Minimum Inhibitory Concentration, EKO-35 araC::acrEF: 1.563 µg/mL
EKO-35 araC::macAB
  Fold change of MICs: 1 fold
  Minimum Inhibitory Concentration, EKO-35 araC::macAB: 0.391 µg/mL
EKO-35 araC::emrAB
  Fold change of MICs: 1 fold
  Minimum Inhibitory Concentration, EKO-35 araC::emrAB: 0.391 µg/mL

## deoxycholate
[1]
  Minimum inhibitory concentration (MIC), K-12: 1500 µg/mL
  Minimum Inhibitory Concentration, K-12: 1500 µg/mL
E. coli ΔtolC
  Minimum inhibitory concentration (MIC), ΔtolC: 187.5 µg/mL
  Minimum Inhibitory Concentration, ΔtolC: 187.5 µg/mL
E. coli EKO-35
  Fold change of MICs: 1 fold
  Minimum inhibitory concentration (MIC), EKO-35: 375 µg/mL
  Minimum Inhibitory Concentration, EKO-35: 375 µg/mL
EKO-35-Pore
  Fold changes of MICs: 1 fold
  Minimum inhibitory concentration (MIC), Pore EKO-35: 187.5 µg/mL
  Minimum inhibitory concentration, EKO-35-Pore: 187.5 µg/mL
EKO-35 araC::mexCD Pore
  Fold changes of MICs: 2 fold
  Minimum inhibitory concentration: 375 µg/mL
EKO-35 araC::mexCD Pore; MexCD, OM compromised
  efflux pump-mediated resistance vs EKO-35-Pore: no longer associated MexCD with resistance
EKO-35 araC::emrKY Pore
  Fold changes of MICs: 1 fold
  Minimum inhibitory concentration: 187.5 µg/mL
EKO-35 araC::acrEF Pore
  Minimum inhibitory concentration, EKO-35 araC::acrEF Pore: 1500 µg/mL
EKO-35 araC::mdtBC Pore
  Fold changes of MICs: 4 fold
  Minimum inhibitory concentration: 750 µg/mL
[2]
  Fold changes of MICs: 1 fold
  Minimum inhibitory concentration: 93.75 µg/mL
EKO-35 araC::emrAB Pore
  Fold changes of MICs: 4 fold
  Minimum inhibitory concentration: 750 µg/mL
EKO-35 araC::mdtEF Pore
  Fold changes of MICs: 8 fold
  Minimum inhibitory concentration, EKO-35 araC::mdtEF Pore: 1500 µg/mL
EKO-35 araC::acrB Pore
  Fold changes of MICs: 8 fold
  Minimum inhibitory concentration, EKO-35 araC::acrB Pore: 1500 µg/mL
EKO-35 araC::macAB Pore
  Fold changes of MICs: 1 fold
  Minimum inhibitory concentration: 187.5 µg/mL
EKO-35 araC::acrD Pore
  Fold changes of MICs: 8 fold
  Minimum inhibitory concentration, EKO-35 araC::acrD Pore: 1500 µg/mL
wild-type (WT) K-12-Pore
  Minimum inhibitory concentration (MIC), Pore K-12: 1500 µg/mL
  Minimum inhibitory concentration, K-12 (WT)-Pore: 1500 µg/mL
ΔtolC-Pore
  Minimum inhibitory concentration (MIC), Pore ΔtolC: 46.875 µg/mL
  Minimum inhibitory concentration, ΔtolC-Pore: 46.875 µg/mL
EKO-35 araC::acrEF
  Fold change of MICs: 4 fold
  Minimum Inhibitory Concentration, EKO-35 araC::acrEF: 1500 µg/mL
EKO-35 araC::macAB
  Fold change of MICs: 1 fold
  Minimum Inhibitory Concentration, EKO-35 araC::macAB: 187.5 µg/mL
EKO-35 araC::emrAB
  Fold change of MICs: 4 fold
  Minimum Inhibitory Concentration, EKO-35 araC::emrAB: 1500 µg/mL
